Marks after values point to notes of the source that are not given here.
What was measured:
[1] = Hygroscopicity study (weight change on storage at 33-95% RH, KF water content); format: physicochemical; settings: for KF moisture result: hygroscopicity sample
Method: (§1) The hexahydrate produced in Example 1 was analysed as follows. Four desiccator cabinets were prepared to contain open dishes of the following saturated salt solutions, to achieve the following approximate relative humidities (RH).
(§2) Dehydration of samples was carried out by storing them over silica gel or over P2O5 at reduced pressure (65 mm Hg). All studies were performed at ambient laboratory temperature (15-22° C.).
Pre-equilibrated weighing bottles and lids (stored at 33% RH for a minimum of 24 hours) were weighed on a tared 5-figure analytical balance, and the weight recorded. To these the hydrate was added (approx 2 g), the weight recorded and the difference (the accurate weight of the drug substance) calculated. The weighing bottles, lids and contents were then transferred to the 33% RH cabinet, with the lids removed and placed to the side.
At appropriate times, the lids were replaced and the weight measured. After weighing, the samples were gently agitated and placed back in the 33% RH cabinet, again with the lid removed and placed to one side. This process continued until all % weight changes for all samples were seen to have reached stable end-points. […]. When stable end-points were observed, the samples were stepped up to the next % RH cabinet by transferring the drug to pre-equilibrated weighing bottles, recording their weight as before. Samples were stored progressively at 33% RH, 60% RH, 75% RH and 95% RH.
(§3) Water contents were measured by coulometric KF (Karl Fischer) titration.

[2] = Dehydration/re-hydration study (weight change over desiccants, then 33-95% RH, KF water content); format: physicochemical
Method: as §1, §2
During this study, samples were dispensed to pre-equilibrated weighing bottles as in the hygroscopicity study, and were then stored over silica gel without reduced pressure, then over […] under reduced pressure (65 mm Hg) to dehydrate the hydrate. Once a stable weight was achieved over P2O5, samples were re-hydrated by storing them at 33% RH to 95% RH, in parallel with the hygroscopicity study as described above.
as §3

Q: With `COc1cc2c(cc1OC)CN(CCc1ccc(NC(=O)c3cc(OC)c(OC)cc3NC(=O)c3cnc4ccccc4c3)cc1)CC2` [Example 1, Quinoline-3-carboxylic acid (2-{4-[2-(6,7-dimethoxy-3,4-dihydro-1H-isoquinolin-2-yl)-ethyl]-phenylcarbamoyl}-4,5-dimethoxy-phenyl)-amide] as the compound, how does the “Cumulative % change Hygroscopicity” value ([1]; 33% RH, tabulated time 1147.25 h (actual: minus 1144 h)) read?
A: −0.17* %

Q: And the “Cumulative % change Hygroscopicity” value ([1]; 33% RH, tabulated time 1150.75 h (actual: minus 1144 h))?
A: −0.22%

Q: And the “Cumulative % change Hygroscopicity” value ([1]; 33% RH, tabulated time 1168.00 h (actual: minus 1144 h))?
A: −0.47%

Q: What about the “Cumulative % change Hygroscopicity” value ([1]; 33% RH, tabulated time 1240.75 h (actual: minus 1144 h)) of the same compound?
A: −0.37%

Q: And the “Cumulative % change Hygroscopicity” value ([1]; 33% RH, tabulated time 1268.50 h (actual: minus 1144 h))?
A: −0.42%

Q: What about the “Cumulative % change Hygroscopicity” value ([1]; 33% RH, tabulated time 1312.50 h (actual: minus 1144 h)) of the same compound?
A: −0.49%

Q: And the “Cumulative % change Hygroscopicity” value ([1]; 33% RH, tabulated time 1431.25 h (actual: minus 1144 h))?
A: −0.63%

Q: What about the “Cumulative % change Hygroscopicity” value ([1]; 33% RH, tabulated time 1502.25 h (actual: minus 1144 h)) of the same compound?
A: −0.51%

Q: And the “Cumulative % change Hygroscopicity” value ([1]; 33% RH, tabulated time 1672.50 h (actual: minus 1144 h))?
A: −0.70%

Q: And the “Cumulative % change Hygroscopicity” value ([1]; 33% RH, tabulated time 1741.50 h (actual: minus 1144 h))?
A: −0.76%

Q: And the “hygroscopicity on storage at progressively higher RH values” ([1]; 33% to 95% RH, ambient temperature)?
A: no evidence of hygroscopicity

Q: And the “Cumulative % change Hygroscopicity” value ([1]; 60% RH, tabulated time 1744.50 h (actual: minus 1144 h))?
A: 0.12%

Q: What about the “Cumulative % change Hygroscopicity” value ([1]; 60% RH, tabulated time 1746.50 h (actual: minus 1144 h)) of the same compound?
A: 0.13%

Q: And the “Cumulative % change Hygroscopicity” value ([1]; 60% RH, tabulated time 1762.50 h (actual: minus 1144 h))?
A: 0.08%

Q: What about the “Cumulative % change Hygroscopicity” value ([1]; 60% RH, tabulated time 1835.75 h (actual: minus 1144 h)) of the same compound?
A: 0.27%

Q: And the “Cumulative % change Hygroscopicity” value ([1]; 60% RH, tabulated time 1932.25 h (actual: minus 1144 h))?
A: 0.37%

Q: And the “Cumulative % change Hygroscopicity” value ([1]; 60% RH, tabulated time 2101.50 h (actual: minus 1144 h))?
A: 0.56%

Q: And the “Cumulative % change Hygroscopicity” value ([1]; 60% RH, tabulated time 2147.75 h (actual: minus 1144 h))?
A: 0.34%

Q: And the “Cumulative % change Hygroscopicity” value ([1]; 60% RH, tabulated time 2273.75 h (actual: minus 1144 h))?
A: 0.34%

Q: What about the “Cumulative % change Hygroscopicity” value ([1]; 60% RH, tabulated time 2410.25 h (actual: minus 1144 h)) of the same compound?
A: 0.27%

Q: What about the “Cumulative % change Hygroscopicity” value ([1]; 75% RH, tabulated time 2417.25 h (actual: minus 1144 h)) of the same compound?
A: 0.87%

Q: And the “Cumulative % change Hygroscopicity” value ([1]; 75% RH, tabulated time 2434.25 h (actual: minus 1144 h))?
A: 0.88%

Q: What about the “Cumulative % change Hygroscopicity” value ([1]; 75% RH, tabulated time 2441.25 h (actual: minus 1144 h)) of the same compound?
A: 0.88%

Q: What about the “Cumulative % change Hygroscopicity” value ([1]; 75% RH, tabulated time 2482.00 h (actual: minus 1144 h)) of the same compound?
A: 0.92%

Q: What about the “Cumulative % change Hygroscopicity” value ([1]; 75% RH, tabulated time 2577.75 h (actual: minus 1144 h)) of the same compound?
A: 1.00%

Q: What about the “Cumulative % change Hygroscopicity” value ([1]; 75% RH, tabulated time 2609.75 h (actual: minus 1144 h)) of the same compound?
A: 0.96%

Q: And the “Cumulative % change Hygroscopicity” value ([1]; 75% RH, tabulated time 2681.25 h (actual: minus 1144 h))?
A: 1.08%

Q: What about the “Cumulative % change Hygroscopicity” value ([1]; 75% RH, tabulated time 2770.25 h (actual: minus 1144 h)) of the same compound?
A: 1.01%

Q: And the “Cumulative % change Hygroscopicity” value ([1]; 75% RH, tabulated time 2817.75 h (actual: minus 1144 h))?
A: 1.09%

Q: What about the “Cumulative % change Hygroscopicity” value ([1]; 95% RH, tabulated time 2825.25 h (actual: minus 1144 h)) of the same compound?
A: 1.85%

Q: And the “Cumulative % change Hygroscopicity” value ([1]; 95% RH, tabulated time 2841.75 h (actual: minus 1144 h))?
A: 2.23%

Q: What about the “Cumulative % change Hygroscopicity” value ([1]; 95% RH, tabulated time 2915.75 h (actual: minus 1144 h)) of the same compound?
A: 2.57%

Q: And the “Cumulative % change Hygroscopicity” value ([1]; 95% RH, tabulated time 2937.75 h (actual: minus 1144 h))?
A: 2.71%

Q: And the “Cumulative % change Hygroscopicity” value ([1]; 95% RH, tabulated time 2991.25 h (actual: minus 1144 h))?
A: 2.82%

Q: And the “Cumulative % change Hygroscopicity” value ([1]; 95% RH, tabulated time 3082.25 h (actual: minus 1144 h))?
A: 3.28%

Q: And the “Cumulative % change Hygroscopicity” value ([1]; 95% RH, tabulated time 3130.00 h (actual: minus 1144 h))?
A: 3.51%

Q: And the “Cumulative % change Hygroscopicity” value ([1]; 95% RH, tabulated time 3182.25 h (actual: minus 1144 h))?
A: 3.39%

Q: What about the “Cumulative % change Hygroscopicity” value ([1]; 95% RH, tabulated time 3252.25 h (actual: minus 1144 h)) of the same compound?
A: 3.62%

Q: What about the “Cumulative % change Hygroscopicity” value ([1]; 95% RH, tabulated time 3350.25 h (actual: minus 1144 h)) of the same compound?
A: 3.65%

Q: And the “Cumulative % change Hygroscopicity” value ([1]; 95% RH, tabulated time 3422.25 h (actual: minus 1144 h))?
A: 3.64%

Q: What about the “Cumulative % change Hygroscopicity” value ([1]; 95% RH, tabulated time 3636.25 h (actual: minus 1144 h)) of the same compound?
A: 4.12%

Q: And the “Cumulative % change Hygroscopicity” value ([1]; 95% RH, tabulated time 4332.75 h (actual: minus 1144 h))?
A: 4.45%

Q: And the “weight increase between storage at 33% RH and end of storage at 75% RH” value ([1]; both re-hydrated and untreated samples)?
A: less than 2 % (absolute)

Q: And the KF moisture result ([1]; 95% RH, tabulated time 4332.75 h (end))?
A: (15.35) % w/w

Q: And the KF moisture result ([1]; printed in first 33% RH row (start of study))?
A: (12.45) % w/w

Q: And the “Cumulative % change Dehydration/Rehydration” value ([2]; 60% RH, cumulative time 1744.50 h)?
A: 0.19%

Q: And the “Cumulative % change Dehydration/Rehydration” value ([2]; 60% RH, cumulative time 1746.50 h)?
A: 0.31%

Q: And the “Cumulative % change Dehydration/Rehydration” value ([2]; 60% RH, cumulative time 1762.50 h)?
A: 0.30%

Q: What about the “Cumulative % change Dehydration/Rehydration” value ([2]; 60% RH, cumulative time 1835.75 h) of the same compound?
A: 0.54%

Q: And the “Cumulative % change Dehydration/Rehydration” value ([2]; 60% RH, cumulative time 1932.25 h)?
A: 0.64%

Q: What about the “Cumulative % change Dehydration/Rehydration” value ([2]; 60% RH, cumulative time 2101.50 h) of the same compound?
A: 0.86%

Q: And the “Cumulative % change Dehydration/Rehydration” value ([2]; 60% RH, cumulative time 2147.75 h)?
A: 0.62%

Q: What about the “Cumulative % change Dehydration/Rehydration” value ([2]; 60% RH, cumulative time 2273.75 h) of the same compound?
A: 0.61%

Q: What about the “Cumulative % change Dehydration/Rehydration” value ([2]; 60% RH, cumulative time 2410.25 h) of the same compound?
A: 0.51%

Q: What about the “Cumulative % change Dehydration/Rehydration” value ([2]; 75% RH, cumulative time 2417.25 h) of the same compound?
A: 1.18%

Q: And the “Cumulative % change Dehydration/Rehydration” value ([2]; 75% RH, cumulative time 2434.25 h)?
A: 1.21%

— patent US7524861B2, “Process for the preparation of a hydrate of an anthranilic acid derivative” (priority 2002, dated 2009)
